Results: US8980946B2, “Treatment of obesity using non-daily administration of 6-O-(4-dimethylaminoethoxy) cinnamoyl fumagillol” (Zafgen, Inc., priority 2010, dated 2015)
“And” between values parts separate entries of the source, which are not always exact repeats. Equal values may be shown once. Marks after values point to notes of the source that are not given here.

Legend:
[1] = Twice weekly intravenous administration to obese patients for 26 days: body weight; format: in vivo, human
Experimental: (§1) The compound was intravenously administered to each patient of a cohort (except for a placebo cohort) twice weekly for 26 days. Each of patients in the three non-placebo cohorts received either 0.1 mg/m^2 (cohort 1); 0.3 mg/m^2 (cohort 2); or 0.9 mg/m^2 (cohort 3) doses of the compound at the time of administration. The trial was conducted under the appropriate government and medical supervision.
Table 1 summarizes body weight determination of the 9 patients in the 0.9 mg/m^2 cohort on the day of the first dose and prior to a second dose administered three or four days later.
(§2) FIG. 1 depicts the body weight change (loss) as a percent before each administration of the twice weekly dose for the 0.9 mg/m^2 cohort. FIG. 2 depicts the Visual Analog Scale reports of hunger decline about 50% following successive biweekly dose administration for the 0.9 mg/m^2 cohort.
All of the subjects of the trial described in Example 1 received doses ranging from 1.8 to 2.2 mg with each administration (given twice weekly). However, weight change was not strictly associated with dose delivered. Instead, response was strongly associated with dose administered per unit excess body weight, as compared to weight change associated with dose delivered per unit body weight.

[2] = Visual Analog Scale of hunger in obese patients, twice weekly dosing; format: in vivo, human; settings: successive twice weekly doses, 0.9 mg/m^2 cohort
Experimental: FIG. 2 depicts visual analogue scale of hunger decline by approximately 50% with body weight change (percent) with twice weekly dosing off 0.1 mg/m^2, 0.3 mg/m^2, and 0.9 mg/m^2 (approximately 1.8 to 2.1 mg) of 6-O-(4-dimethylaminoethoxy)cinnamoyl fumagillol in human patients. Values are means (n=6 per dose level) of changes in fasted Visual Analog Scale scores for each visit day vs. Day 1 for population; p values derived from 2-way ANOVA with Bonferroni post-test comparisons (*, p<0.05; **, p<0.01 vs. placebo).
as §1, §2

[3] = human, in vivo
Experimental: as §1
There was a significant correlation between weight loss of patients and maintained exposure of 0.02 ng/mL of the drug above the level of quantitation of the assay 24 hours after dosing, as shown in FIG. 4 (circled data point is exposure of one poor responder below the level of quantitation of assay). The PK profile at day 26 is representative of steady state (see FIG. 5).

adiponectin = experiment: Adiponectin levels in the serum of patients undergoing the trial; format: in vivo, human; settings: with treatment
Experimental: Levels of adiponectin in the serum of patients undergoing the trial were also measured.

Sprague-Dawley male rats = experiment: Testis toxicity study, subcutaneous administration daily or every third day for 4 weeks; format: in vivo, rat
Experimental: A testis toxicity study was performed using daily subcutaneous administration or every other day (every third day) subcutaneous administration in rats. […] Additionally, equivalent total exposure using a 3 mg/kg dose administered every third day was compared as well.
64 Sprague-Dawley male rats within ±20% of mean body weight at initiation of dosing were used for the study. Vehicle control or Compound was administered once daily or every 3rd day for 4 weeks, at a volume of 5 mL/kg, as follows, with groups 1-4 for toxicity and groups 5-8 for toxicokinetic studies.
Upon completion of the study, complete necropsy examinations are performed, and the seminal vesicle, testes, and other organs are weighed at terminal necropsy. Terminal body weights are determined just prior to necropsy for assessment of organ weight changes.

[4] = Injection site tolerability; format: in vivo; settings: doses up to 6 mg
[5] = average of 9 patients, 0.9 mg/m^2 cohort, first dose to before second dose
[6] = individual subject, 0.9 mg/m^2 cohort, first dose to before second dose three or four days later
[7] = rat, s.c., 4 weeks, 1 mg/kg daily
[8] = rat, s.c., 4 weeks, 1 mg/kg every 3rd day
[9] = rat, s.c., 4 weeks, 3 mg/kg every 3rd day

CO[C@@H]1[C@H](OC(=O)/C=C/c2ccc(OCCN(C)C)cc2)CC[C@]2(CO2)[C@H]1[C@@]1(C)O[C@@H]1CC=C(C)C.O=C(O)C(=O)O [6-O-(4-dimethylaminoethoxy)cinnamoyl fumagillol oxalate]
efficacy (weight loss) ([1]; 0.1 and 0.3 mg/m^2 twice weekly): Lack of efficacy | dose with which maximum efficacy is obtained ([1]; administered biweekly): ~20 µg/kg | doses at which weight loss efficacy is obtained ([1]; administered twice weekly): ≥ 20 µg/kg | dose at which weight loss plateaus ([1]; administered twice weekly (~1.8 mg dose)): 0.9 mg/m^2 | weight loss at follow up check at day 36 ([1]; after twice weekly regimen over 26 days): substantially sustained | Weight Change (%), Average [1, 5]: −0.7% | Weight Change (kg), Average [1, 5]: -0.7 kg | Ending weight (kg), Average ([1]; average of 9 patients, 0.9 mg/m^2 cohort, prior to second dose): 103.9 kg | Weight Change [1, 6]: 0 kg and −0.5 kg and −0.7 kg and 0.2 kg and −0.6 kg and −1.1 kg (2×) and −0.9 kg and −1.9 kg | Weight Change (%) [1, 6]: 0.0% and −0.5% and −0.6% (2×) and 0.2% and −1.1% and −0.9% and −1.9% and −1.0% | Ending weight ([1]; individual subject, 0.9 mg/m^2 cohort, prior to second dose three or four days after first dose): 107.9 kg and 105 kg and 118 kg and 96.2 kg and 95.7 kg and 100.4 kg and 103.7 kg and 100.5 kg and 107.5 kg | dose per kg of excess body weight to be exceeded to see effects ([1]; obese patients, twice weekly): > 40 μg of drug per kg of excess body weight | number of patients showing greater than 3-4 percent body weight loss ([1]; of the 9 subjects at 0.9 mg/m^2, twice weekly, over 26 days of exposure): 7 | duration of weight reduction after single administration ([1]; single administration of 0.9 mg/m2 dose): 4 days | Visual Analog Scale hunger decline [2]: about 50% | Visual Analog Scale hunger decline ([2]; listed as 6-O-(4-dimethylaminoethoxy)cinnamoyl fumagillol): approximately 50% | drug exposure at 24 hours post dose associated with weight loss [3]: above 0.02 ng/mL | AUC (0-24 hr) measured range ([3]; iv, 0.9 mg/m2): 8.57 to 13.6 ng·h/mL | T1/2 (H) λz (terminal) ([3]; iv, 0.9 mg/m2): 5.41±2.82 H | average AUC (0-24 hr) ([3]; iv, 0.9 mg/m2): 10.5 ng·h/mL | average AUC (0-∞) ([3]; iv, 0.9 mg/m2): 11 ng·h/mL | average Cmax ([3]; iv, 0.9 mg/m2): 2.1 ng/mL | terminal half life ([3]; iv, 0.9 mg/m2): 5.4 h | increase of adiponectin concentrations (adiponectin): over 60% | Clinical Chemistry findings (Sprague-Dawley male rats; rat, 1 mg/kg Q3D): No findings | Hematology findings (Sprague-Dawley male rats; rat, 1 mg/kg Q3D): No findings | Macroscopic findings (Sprague-Dawley male rats; rat, 1 mg/kg Q3D): No findings | Microscopic findings (Sprague-Dawley male rats; rat, 1 mg/kg Q3D): No findings | Organ weight findings (Sprague-Dawley male rats; rat, 1 mg/kg Q3D): No findings | Clinical Chemistry: Higher albumin/globulin (Sprague-Dawley male rats; rat, 1 mg/kg/day): Higher albumin/globulin (1.12X) | Clinical Chemistry: Higher potassium (Sprague-Dawley male rats; rat, 1 mg/kg/day): Higher potassium (1.2X) | Clinical Chemistry: Reduced Inorg phosphate (Sprague-Dawley male rats; rat, 1 mg/kg/day): Reduced Inorg phosphate (0.96 X) | Clinical Chemistry: Reduced alk phos (Sprague-Dawley male rats; rat, 1 mg/kg/day): Reduced alk phos (0.72X) | Hematology findings (Sprague-Dawley male rats; rat, 1 mg/kg/day): Reduced blood cell counts | Hematology: Basophil (Sprague-Dawley male rats; rat, 1 mg/kg/day): 0.55 X | Hematology: Eosinophil (Sprague-Dawley male rats; rat, 1 mg/kg/day): 0.75 X | Hematology: Large unstained cell (Sprague-Dawley male rats; rat, 1 mg/kg/day): (0.67X) | Hematology: Lymphocyte (Sprague-Dawley male rats; rat, 1 mg/kg/day): 0.65 X | Hematology: Monocyte (Sprague-Dawley male rats; rat, 1 mg/kg/day): 0.79 X | Hematology: Neutrophil (Sprague-Dawley male rats; rat, 1 mg/kg/day): 0.83 X | Hematology: WBC (Sprague-Dawley male rats; rat, 1 mg/kg/day): 0.68 X | Macroscopic findings (Sprague-Dawley male rats; rat, 1 mg/kg/day): Smaller testes and epididymides | Microscopic findings, lymph node (Sprague-Dawley male rats; rat, 1 mg/kg/day): Lymph node atrophy | Microscopic: Germ cell depletion/degeneration (incidence) (Sprague-Dawley male rats; rat, 1 mg/kg/day): Germ cell depletion/degeneration 9/10 | Organ weight: Adrenal (Sprague-Dawley male rats; rat, 1 mg/kg/day): (1.24X) | Organ weight: Brain (Sprague-Dawley male rats; rat, 1 mg/kg/day): 1.15 X | Organ weight: Epididymides (Sprague-Dawley male rats; rat, 1 mg/kg/day): 0.88 X | Organ weight: Liver (Sprague-Dawley male rats; rat, 1 mg/kg/day): 0.85 X | Organ weight: Prostate (Sprague-Dawley male rats; rat, 1 mg/kg/day): 0.83 X | Organ weight: Salivary gland (Sprague-Dawley male rats; rat, 1 mg/kg/day): 0.87 X | Organ weight: Seminal vesicle (Sprague-Dawley male rats; rat, 1 mg/kg/day): 0.79 X | Organ weight: Spleen (Sprague-Dawley male rats; rat, 1 mg/kg/day): 0.71 X | Organ weight: Testes (Sprague-Dawley male rats; rat, 1 mg/kg/day): 0.83 X | Organ weight: Thymus (Sprague-Dawley male rats; rat, 1 mg/kg/day): 0.86 X | Organ weight: Thyroid (Sprague-Dawley male rats; rat, 1 mg/kg/day): 0.82 X | overall findings (Sprague-Dawley male rats; rat, 1 mg/kg/day): adverse findings (e.g. blood dyscrasias and/or irreversible testis lesions) | Clinical Chemistry: Higher albumin/globulin (Sprague-Dawley male rats; rat, 3 mg/kg Q3D): (1.09X) | Hematology findings (Sprague-Dawley male rats; rat, 3 mg/kg Q3D): No findings | Macroscopic findings (Sprague-Dawley male rats; rat, 3 mg/kg Q3D): No findings | Microscopic findings (Sprague-Dawley male rats; rat, 3 mg/kg Q3D): No findings | Organ weight findings (Sprague-Dawley male rats; rat, 3 mg/kg Q3D): No findings | animal weight (Sprague-Dawley male rats; rat, 3 mg/kg every three days): reduces animal weight significantly | overall findings (Sprague-Dawley male rats; rat, 3 mg/kg every three days): does not show any significant adverse findings | Epididymides absolute weight (Sprague-Dawley male rats; [7]): 1.130 g | Prostate absolute weight (Sprague-Dawley male rats; [7]): 0.546 g | Seminal Vesicles absolute weight (g) (Sprague-Dawley male rats; [7]): 1.201** g | Testes absolute weight (g) (Sprague-Dawley male rats; [7]): 2.569* g | Thymus absolute weight (Sprague-Dawley male rats; [7]): 0.343 g | Epididymides absolute weight (Sprague-Dawley male rats; [8]): 1.249 g | Prostate absolute weight (Sprague-Dawley male rats; [8]): 0.710 g | Seminal Vesicles absolute weight (Sprague-Dawley male rats; [8]): 1.523 g | Testes absolute weight (Sprague-Dawley male rats; [8]): 3.097 g | Thymus absolute weight (Sprague-Dawley male rats; [8]): 0.421 g | Epididymides absolute weight (Sprague-Dawley male rats; [9]): 1.267 g | Prostate absolute weight (Sprague-Dawley male rats; [9]): 0.663 g | Testes absolute weight (Sprague-Dawley male rats; [9]): 3.273 g | Thymus absolute weight (Sprague-Dawley male rats; [9]): 0.423 g | tissue weight effects (testes and seminal vesicle weights) (Sprague-Dawley male rats; rats administered with less frequent dosing (every third day)): no tissue weight effects | injection site tolerability [4]: acceptable
